Source: ChEMBL document CHEMBL1201862, “PubChem BioAssay data set” (2004)
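Tested at 5 concentrations; 48 h exposure; 96-well plates; endpoints linearly interpolated, else capped at highest concentration. Abbreviation: GI50, concentration required for 50% inhibition of growth.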 Calls of active or inactive are those of the source. Rule as the data show it: active = GI50 up to about 1.1 µM and inactive = higher.

Key:
Assay in all cases: growth of human tumour cells (NCI), 48 h
[1] = system: NCI-H226
[2] = system: K562
[3] = system: SK-MEL-28
[4] = system: MOLT-4
[5] = system: NCI-H460
[6] = system: CCRF-CEM
[7] = system: SNB-19
[8] = system: COLO 205
[9] = system: CAKI-1
[10] = system: A549
[11] = system: IGROV-1
[12] = system: OVCAR-3
[13] = system: SR
[14] = system: M14
[15] = system: SF-268
[16] = system: HOP-92
[17] = system: RXF 393

Measured: GI50

O=C(/C=C1\NC(=O)c2ccccc2N1)c1ccncc1
inactive: [1] > 100 µM | [2] > 100 µM | [3] > 100 µM | [4] > 100 µM | [5] > 100 µM | [6] > 100 µM | [7] > 100 µM | [8] > 100 µM | [9] > 100 µM | [10] > 100 µM | [11] > 100 µM | [12] > 100 µM | [13] > 100 µM | [14] > 100 µM | [15] > 100 µM

CC1=NN(c2ccccc2)C(=O)C1/N=N/c1ccc(Br)cc1C (configuration not stated)
inactive: [1] 35.9 µM | [2] > 100 µM | [3] > 100 µM | [4] > 100 µM | [5] > 100 µM | [16] 38.6 µM | [6] > 100 µM | [7] 85.9 µM | [17] 50.5 µM | [8] > 100 µM | [9] 46.2 µM | [10] 40.5 µM | [11] 67.3 µM | [12] > 100 µM | [14] 90.4 µM | [15] > 100 µM

CCN(CC)CCC(=O)N1CCc2c([nH]c3ccccc23)C1c1cccnc1 (configuration not stated)
inactive: [2] > 100 µM | [3] > 100 µM | [4] > 100 µM | [5] > 100 µM | [16] 68.9 µM | [6] > 100 µM | [7] > 100 µM | [9] > 100 µM | [10] > 100 µM | [11] > 100 µM | [12] > 100 µM | [13] > 100 µM | [14] > 100 µM | [15] > 100 µM

CCOC(=O)Nc1ccc(S(=O)(=O)OC)cc1.CCOC(=O)Nc1ccc(S(=O)(=O)OC)cc1.NNC(=O)c1ccncc1
inactive: [1] > 50 µM | [2] 40.2 µM | [3] > 50 µM | [4] > 50 µM | [5] > 50 µM | [16] > 50 µM | [6] 9.08 µM | [7] > 50 µM | [8] > 50 µM | [9] > 50 µM | [10] > 50 µM | [11] > 50 µM | [12] > 50 µM | [14] > 50 µM | [15] > 50 µM

COC(=O)CC(C(C(=O)OC)C(=O)OC)N1C(=O)OCC1c1ccccc1 (configuration not stated)
inactive: [1] > 100 µM | [2] > 100 µM | [3] > 100 µM | [4] > 100 µM | [5] > 100 µM | [16] > 100 µM | [6] > 100 µM | [7] > 100 µM | [17] > 100 µM | [8] > 100 µM | [9] > 100 µM | [10] > 100 µM | [11] > 100 µM | [12] > 100 µM | [14] > 100 µM | [15] > 100 µM

CC1(C(=O)Nc2ccc3cc4ccccc4cc3c2)CC2(C)CC(C)(C1)C(O)NC2=O (configuration not stated)
inactive: [1] 53.1 µM | [2] 73.1 µM | [3] > 100 µM | [4] 20.6 µM | [5] 56 µM | [16] 59.3 µM | [6] 34.4 µM | [17] > 100 µM | [8] 41.6 µM | [9] > 100 µM | [10] 98.4 µM | [11] > 100 µM | [12] 70 µM | [13] 23.6 µM | [14] > 100 µM | [15] > 100 µM

CC(C)c1ccc(O)c(Cc2cc(C(C)C)cc(Cc3cc(C(C)C)ccc3O)c2O)c1
inactive: [1] 1.54 µM | [2] 2.23 µM | [3] 1.73 µM | [4] 1.78 µM | [5] 1.83 µM | [16] 1.79 µM | [6] 3.39 µM | [7] 1.65 µM | [8] 3.32 µM | [9] 1.53 µM | [10] 1.9 µM | [11] 2.46 µM | [12] 1.65 µM | [13] 1.88 µM | [14] 1.66 µM | [15] 1.82 µM

COc1ccc(NC(=O)C(=O)c2c(O)c3ccc(O)cc3oc2=O)c([N+](=O)[O-])c1
inactive: [1] > 100 µM | [2] > 100 µM | [3] > 100 µM | [4] > 100 µM | [5] > 100 µM | [16] > 100 µM | [6] > 100 µM | [7] > 100 µM | [17] > 100 µM | [8] > 100 µM | [9] > 100 µM | [10] > 100 µM | [11] > 100 µM | [12] > 100 µM | [14] > 100 µM | [15] > 100 µM

c1ccc2c3c([nH]c2c1)C1C2CCCCN2C(c2ccncc2)N1CC3 (configuration not stated)
inactive: [2] 32.1 µM | [3] 39.9 µM | [4] 43.3 µM | [5] 29.6 µM | [6] 33 µM | [7] 25.4 µM | [17] 29.3 µM | [8] 35 µM | [9] 34.4 µM | [10] 32.2 µM | [12] 44.1 µM | [13] 33.9 µM | [14] 34.8 µM | [15] > 10 µM

N#Cc1ccccc1NC(=O)/C(=N\Nc1ccc([N+](=O)[O-])cc1)C1C(=O)NC(=O)NC1=O
inactive: [2] > 100 µM | [3] > 100 µM | [4] > 100 µM | [5] > 100 µM | [16] 3.69 µM | [6] > 100 µM | [7] > 100 µM | [17] > 100 µM | [8] > 100 µM | [9] 31.4 µM | [10] > 100 µM | [11] > 100 µM | [12] > 100 µM | [14] > 100 µM | [15] > 100 µM

CCNc1c(C(=O)N(CC)CC)c(=O)[nH]c2ncccc12
inactive: [1] > 100 µM | [2] > 100 µM | [3] > 100 µM | [4] > 100 µM | [5] > 100 µM | [16] > 100 µM | [6] > 100 µM | [7] > 100 µM | [17] > 100 µM | [8] > 100 µM | [9] > 100 µM | [10] > 100 µM | [11] > 100 µM | [12] > 100 µM | [14] > 100 µM | [15] > 100 µM

O=C(C(=O)n1ncc(Cl)c(Cl)c1=O)n1ncc(Cl)c(Cl)c1=O
inactive: [1] > 100 µM | [2] 20.3 µM | [3] 25.3 µM | [4] 14.8 µM | [5] 45.7 µM | [16] 23.2 µM | [6] 6.85 µM | [7] > 100 µM | [17] > 10 µM | [8] 13.9 µM | [9] 17.7 µM | [10] 96.8 µM | [11] 27.4 µM | [12] 27.1 µM | [14] 25.1 µM | [15] 42.4 µM

CCn1c(C)nn2c(=O)c3ccccc3nc2c1=O
inactive: [2] > 100 µM | [3] > 100 µM | [4] > 100 µM | [5] > 100 µM | [16] 59.7 µM | [6] > 100 µM | [8] > 100 µM | [9] > 100 µM | [10] > 100 µM | [11] > 100 µM | [12] > 100 µM | [14] > 100 µM
